# Laboratory results published in US10889555B2, “Sulfonamide compound or salt thereof” (Taiho Pharmaceutical Co., Ltd., priority 2016, dated 2021).
# Read-outs that look alike come from different tables or passages of the source.
# Assays:
# [1] = test system: various cancer cell lines as described in Table 21; assay: Cell proliferation inhibitory effect on human cancer-derived cancer cell lines (method of Test Example 2); assay type: cell-based
# Procedure: Human derived breast cancer cell line HCC 1806 cells were daily passaged at a cell density not exceeding 80% in ATCC recommended Roswell Park Memorial Institute medium (RPMI-1640) containing 10% fetal bovine serum (FBS). In order to start the test of cell proliferation inhibitory activity, HCC 1806 cells were suspended in the above medium, after seeing at 180 μL in each well of a 96-well flat bottom plate so that the number of cells per well was 2,000, the cells were cultured at 37° C. for 1 day in an incubator containing 5% carbon dioxide gas. On the next day, the test compound was dissolved in DMSO, and 20 μL of a drug additive solution diluted serially with distilled water to 10 times of the final concentration was added to each well of the culture plate of the cells, and the cells were cultured at 37° C. for 72 hours in an incubator containing 5% carbon dioxide gas. After culturing for 72 hours, 20 μL of glutaraldehyde was added to each well and allowed to stand for 30 minutes, then the plate was washed 10 times with water and was dried. 100 μL of a stain solution (0.05% crystal violet in a 20% methanol solution) was added to each well and allowed to stand for 30 minutes, then the plate was washed 10 times with water and was dried. 100 μL of an extract solution (0.1 N NaH2PO4: 100% ethanol=1:1) was added to each well and mixed, and the mixture was measured at a wavelength of 540 nm using a plate reader (MTP-450 manufactured by Corona Electric Co., Ltd.). The growth inhibition rate was calculated from the following formula, and the concentration (IC50 (μM)) of a test compound inhibiting 50% was determined. Growth inhibition rate (%)={(C−B)−(T−B)}/(C−B)×100
# According to the method of Test Example 2, the cell proliferation inhibitory effect on various cancer cell lines as described in Table 21 was evaluated.
# HCC 1806 cells = assay: Cell proliferation inhibitory effect on human breast cancer cell line (crystal violet, 72 hours); assay type: cell-based; settings: read-out: Cell growth suppression IC50
# Summary of the method: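 Cells were seeded at 2,000/well in RPMI-1640 with 10% FBS and grown 1 day, then exposed to compound for 72 h at 37° C, 5% CO2. After glutaraldehyde fixation and 0.05% crystal violet staining, extracted dye was read at 540 nm. IC50 (μM) came from growth inhibition relative to untreated and cell-free wells.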
# [2] = A673, Ewing's sarcoma, 2000 cell/well, read-out: cell proliferation inhibitory effect, A673
# [3] = A2780, Ovarian Cancer, 2000 cell/well, read-out: cell proliferation inhibitory effect, A2780
# [4] = ACHN, Kidney Cancer, 2000 cell/well, read-out: cell proliferation inhibitory effect, ACHN
# [5] = CFPAC-1, Pancreatic Cancer, 2000 cell/well, read-out: cell proliferation inhibitory effect, CFPAC-1
# [6] = DU-145, DU145, Prostate Cancer, 5000 cell/well, read-out: cell proliferation inhibitory effect, DU145
# [7] = GB-1, Glioblastoma, 3000 cell/well, read-out: cell proliferation inhibitory effect, GB-1
# [8] = HCT-116, HCT116, Colorectal Cancer, 1000 cell/well, read-out: cell proliferation inhibitory effect, HCT116
# [9] = HLE, Liver Cancer, 3000 cell/well, read-out: cell proliferation inhibitory effect, HLE
# [10] = MSTO-211H, Mesothelioma, 6000 cell/well, read-out: cell proliferation inhibitory effect, MSTO-211H
# [11] = NCI-H460, Lung Cancer, 1000 cell/well, read-out: cell proliferation inhibitory effect, NCI-H460
# [12] = NCI-H2170, Lung Cancer, 5000 cell/well, read-out: cell proliferation inhibitory effect, NCI-H2170
# [13] = NCI-H2228, Lung Cancer, 5000 cell/well, read-out: cell proliferation inhibitory effect, NCI-H2228
# [14] = NUGC-3, Stomach Cancer, 2000 cell/well, read-out: cell proliferation inhibitory effect, NUGC-3
# [15] = RPMI7932, Melanoma, 4000 cell/well, read-out: cell proliferation inhibitory effect, RPMI7932
compound,measurement,setting,value
"Cc1c(Cl)ccc(F)c1[C@@H](C)[C@H](NS(=O)(=O)c1ccc(Cl)cc1C(N)=O)c1n[nH]c(=O)o1 [Example 14, 5-chloro-2-(N-((1S,2R)-2-(3 chloro-6-fluoro-2-methylphenyl)-1-(5oxo-4,5-dihydro-1,3,4-oxadiazol-2-yl)propyl)sulfamoyl)benzamide]",IC50,[1]; [2],1850 nM
same,IC50,[1]; [3],1710 nM
same,IC50,[1]; [4],980 nM
same,IC50,[1]; [5],1420 nM
same,IC50,[1]; [6],2220 nM
same,IC50,[1]; [7],4600 nM
same,IC50,[1]; [8],2200 nM
same,IC50,[1]; [9],1300 nM
same,IC50,[1]; [10],1580 nM
same,IC50,[1]; [11],1350 nM
same,IC50,[1]; [12],4180 nM
same,IC50,[1]; [13],3530 nM
same,IC50,[1]; [14],2830 nM
same,IC50,[1]; [15],3210 nM
same,IC50,"HCC 1806 cells; Homo sapiens, HCC1806, 72 h",560 nM
"Cc1ccc(F)c([C@@H](C)[C@H](NS(=O)(=O)c2ccc(Cl)c3c2OCCC3O)c2n[nH]c(=O)o2)c1C (single isomer, unassigned) [Example 235A]",IC50,[1]; [2],610 nM
same,IC50,[1]; [3],400 nM
same,IC50,[1]; [4],380 nM
same,IC50,[1]; [5],350 nM
same,IC50,[1]; [6],530 nM
same,IC50,[1]; [7],1120 nM
same,IC50,[1]; [8],480 nM
same,IC50,[1]; [9],420 nM
same,IC50,[1]; [10],390 nM
same,IC50,[1]; [11],350 nM
same,IC50,[1]; [12],1100 nM
same,IC50,[1]; [13],880 nM
same,IC50,[1]; [14],710 nM
same,IC50,[1]; [15],1230 nM
same,IC50,HCC 1806 cells,130 nM
"CCc1ccc(F)c([C@@H](C)[C@H](NS(=O)(=O)c2ccc(Cl)cc2C(N)=O)c2n[nH]c(=O)o2)c1C [Example 11, 5-chloro-2-(N-((1S,2R)-2-(3-ethyl-6-fluoro-2-methylphenyl)-1-(5-oxo-4,5-dihydro-1,3,4-oxadiazol-2-yl)propyl)sulfamoyl)benzamide]",IC50,[1]; [2],2560 nM
same,IC50,[1]; [3],2080 nM
same,IC50,[1]; [4],1500 nM
same,IC50,[1]; [5],1710 nM
same,IC50,[1]; [6],1840 nM
same,IC50,[1]; [7],5220 nM
same,IC50,[1]; [8],2300 nM
same,IC50,[1]; [9],1740 nM
same,IC50,[1]; [10],1540 nM
same,IC50,[1]; [11],1500 nM
same,IC50,[1]; [12],3900 nM
same,IC50,[1]; [13],3210 nM
same,IC50,[1]; [14],3110 nM
same,IC50,[1]; [15],4740 nM
same,IC50,"HCC 1806 cells; Homo sapiens, HCC1806, 72 h",640 nM
"[2H]C([2H])([2H])C1(O)CCOc2c(S(=O)(=O)N[C@H](c3n[nH]c(=O)o3)[C@H](C)c3c(F)ccc(Cl)c3C)ccc(Cl)c21 (single isomer, unassigned) [Example 228A]",IC50,[1]; [2],400 nM
same,IC50,[1]; [3],380 nM
same,IC50,[1]; [4],320 nM
same,IC50,[1]; [5],360 nM
same,IC50,[1]; [6],340 nM
same,IC50,[1]; [7],850 nM
same,IC50,[1]; [8],380 nM
same,IC50,[1]; [9],290 nM
same,IC50,[1]; [10],370 nM
same,IC50,[1]; [11],310 nM
same,IC50,[1]; [12],880 nM
same,IC50,[1]; [13],740 nM
same,IC50,[1]; [14],510 nM
same,IC50,[1]; [15],650 nM
same,IC50,"HCC 1806 cells; Homo sapiens, HCC1806, 72 h",140 nM
"Cc1c(Br)ccc(F)c1[C@@H](C)[C@H](NS(=O)(=O)c1ccc(Cl)c2c1OCCC2(C)O)c1n[nH]c(=O)o1 (single isomer, unassigned) [Example 222A]",IC50,[1]; [2],250 nM
same,IC50,[1]; [3],190 nM
same,IC50,[1]; [4],170 nM
same,IC50,[1]; [5],230 nM
same,IC50,[1]; [6],260 nM
same,IC50,[1]; [7],460 nM
same,IC50,[1]; [8],270 nM
same,IC50,[1]; [9],200 nM
same,IC50,[1]; [10],270 nM
same,IC50,[1]; [11],180 nM
same,IC50,[1]; [12],520 nM
same,IC50,[1]; [13],480 nM
same,IC50,[1]; [14],360 nM
same,IC50,[1]; [15],510 nM
same,IC50,HCC 1806 cells,60 nM
"CC(=O)OC1(C(F)(F)F)CCOc2c1cccc2S(=O)(=O)N[C@H](c1n[nH]c(=O)o1)[C@H](C)c1c(F)ccc(C)c1C (stereo partly drawn) [Example 106, 8-(N-((1S,2R)-2-(6-fluoro-2,3-dimethylphenyl)-1-(5-oxo-4,5-dihydro-1,3,4-oxadiazol-2-yl)propyl)sulfamoyl)-4-(tifluoromethyl)chroman-4-yl acetate]",IC50,"HCC 1806 cells; Homo sapiens, HCC1806, 72 h",380 nM
"Cc1ccc(F)c([C@@H](C)[C@H](NS(=O)(=O)c2ccc(Cl)c3c2OCCC3N)c2n[nH]c(=O)o2)c1C (stereo partly drawn) [Example 278, 4-amino-5-chloro-N-((1S,2R)-2-(6-fluoro-2,3-dimethylphenyl)-1-(5-oxo-4,5-dihydro-1,3,4-oxadiazol-2-yl)propyl)chroman-8-sulfonamide]",IC50,"HCC 1806 cells; Homo sapiens, HCC1806, 72 h",590 nM
COc1nc(Cl)ccc1S(=O)(=O)N[C@H](c1n[nH]c(=O)o1)[C@H](C)c1c(F)ccc(C)c1C [Example 148],IC50,"HCC 1806 cells; Homo sapiens, HCC1806, 72 h",400 nM
"Cc1c(Br)ccc(F)c1[C@@H](C)[C@H](NS(=O)(=O)c1ccc(Cl)c2c1OCCC2O)c1n[nH]c(=O)o1 (single isomer, unassigned) [Example 243B]",IC50,HCC 1806 cells,700 nM
"Cc1c(Cl)ccc(F)c1[C@@H](C)[C@H](NS(=O)(=O)c1ccc(Cl)c2c1OCCN2C)c1n[nH]c(=O)o1 [Example 289, 5-chloro-N-((1S,2R)-2-(3-chloro-6-fluoro-2-methylphenyl)-1-(5-oxo-4,5-dihydro-1,3,4-oxadiazol-2-yl)propyl)-4-methyl-3,4-dihydro-2H-benzo[b][1,4]oxazine-8-sulfonamide]",IC50,"HCC 1806 cells; Homo sapiens, HCC1806, 72 h",600 nM
"COc1cc(Cl)ccc1S(=O)(=O)N[C@H](c1n[nH]c(=O)o1)[C@H](C)c1c(F)ccc(-c2cnn(C3CCC3)c2)c1C [Example 312, 4-chloro-N-((1S,2R)-2-(3-(1-cyclobutyl-1H-pyrazol-4-yl)-6-fluoro-2-methylphenyl)-1-(5-oxo-4,5-dihydro-1,3,4-oxadiazol-2-yl)propyl)-2-methoxybenzenesulfonamide]",IC50,"HCC 1806 cells; Homo sapiens, HCC1806, 72 h",870 nM
"Cc1c(Br)ccc(F)c1[C@@H](C)[C@H](NS(=O)(=O)c1ccc(Cl)c2c1OCCC2O)c1n[nH]c(=O)o1 (single isomer, unassigned) [Example 243A]",IC50,HCC 1806 cells,290 nM
"[2H]C([2H])([2H])C1(OC(C)=O)CCOc2c(S(=O)(=O)N[C@H](c3n[nH]c(=O)o3)[C@H](C)c3c(F)ccc(C)c3C)ccc(Cl)c21 (stereo partly drawn) [Example 129, 5-Chloro-8-(N-((1S,2R)-2-(6-fluoro-2,3-dimethylphenyl)-1-(5-oxo-4,5-dihydro-1,3,4-oxadiazol-2-yl)propyl)sulfamoyl)-4-methyl-d3-chroman-4-yl Acetate]",IC50,"HCC 1806 cells; Homo sapiens, HCC1806, 72 h",80 nM
"Cc1c(Cl)ccc(F)c1[C@@H](C)[C@H](NS(=O)(=O)c1ccc(Cl)c2c1OCCC2(C)N)c1n[nH]c(=O)o1 (mixture of isomers) [Example 328, 4-amino-5-chloro-N-((1S,2R)-2-(3-chloro-6-fluoro-2-methylphenyl)-1-(5-oxo-4,5-dihydro-1,3,4-oxadiazol-2-yl)propyl)-4-methylchroman-8-sulfonamide]",IC50,"HCC 1806 cells; Homo sapiens, HCC1806, 72 h",410 nM
"CCN1CCOc2c(S(=O)(=O)N[C@H](c3n[nH]c(=O)o3)[C@H](C)c3c(F)ccc(C)c3C)ccc(Cl)c21 [Example 94, 5-chloro-4-ethyl-N-((1S,2R)-2-(6-fluoro-2,3-dimethylphenyl)-1-(5-oxo-4,5-dihydro-1,3,4-oxadiazol-2-yl)propyl)-3,4-dihydro-2H-benzo [b][1,4]oxazine-8-sulfonamide]",IC50,"HCC 1806 cells; Homo sapiens, HCC1806, 72 h",480 nM
"Cc1ccc(F)c([C@@H](C)[C@H](NS(=O)(=O)c2ccc(F)c3c2OCCC3O)c2n[nH]c(=O)o2)c1C (single isomer, unassigned) [Example 230B]",IC50,HCC 1806 cells,780 nM
"COc1c(S(=O)(=O)N[C@H](c2n[nH]c(=O)o2)[C@H](C)c2c(F)ccc(C)c2C)ccc(Cl)c1C(C)OC(C)=O (stereo partly drawn) [Example 144, 1-(6-chloro-3-(N-((1S,2R)-2-(6-fluoro-2,3-dimethylphenyl)-1-(5-oxo-4,5-dihydro-1,3,4-oxadiazol-2-yl)propyl)sulfamoyl)-2-methoxyphenyl)ethyl acetate]",IC50,"HCC 1806 cells; Homo sapiens, HCC1806, 72 h",960 nM
"Cc1c(Br)ccc(F)c1[C@@H](C)[C@H](NS(=O)(=O)c1ccc(Cl)c2c1OCCC2(C)N)c1n[nH]c(=O)o1 (stereo partly drawn) [Example 329, 4-amino-N-((1S,2R)-2-(3-bromo-6-fluoro-2-methylphenyl)-1-(5-oxo-4,5-dihydro-1,3,4-oxadiazol-2-yl)propyl)-5-chloro-4-methyl-chroman-8-sulfonamide]",IC50,"HCC 1806 cells; Homo sapiens, HCC1806, 72 h",240 nM
